Results as given in patent US8507488B2, “Fused nitrogen containing heterocycles and compositions thereof as kinase inhibitors” (IRM LLC, priority 2008, dated 2013).

Experiments:
[1] = biological target: T1, full length rTrkA and mNGF (Rattus norvegicus, UniProt P35739); assay: Inhibition of proliferation of Ba/F3 cells co-expressing full length rTrkA and mNGF (BaF3/TrkA-NFG); assay type: cell-based; conditions: BaF3 TRKA-NGF cells, CTG readout
T1 construct: co-expressing full length rTrkA and mNGF; expressed in transfected cells; host or cells: Ba/F3 cells

parental BaF3 cells = assay: Proliferation of parental (untransformed) Ba/F3 cells maintained with IL3; assay type: cell-based, murine; conditions: Mus musculus, BaF3, parental Ba/F3 cells; read-out: Ba/F3 IC 50
Description: (§1) Test compounds were dissolved in DMSO (10 mM) and transferred into 1.4 mL flat bottom or V-shaped Matrix tubes carrying a unique 2D matrix chip by individual compound hubs. The numbers of these chips were distinctively linked to the individual compound identification numbers. The stock solutions were stored at −20° C. if not used immediately. For the test procedure the vials were defrosted and identified by a scanner whereby a working sheet is generated that guides the subsequent working steps.
(§2) Compound dilutions were made in 384 well plates. This format enabled the assay of maximally 28 individual test compounds at 12 concentrations (single points) including 2 reference compounds. The dilution protocol included the production of pre-dilution plates, master plates and assay plates: • Compound plates: 30 μL of individual compound (10 mM) DMSO solution including standard compound were transferred into columns 1 and 13 of a 384 well plate. 20 μL of DMSO were added to the rest of the wells and the compounds were serially diluted (1:3) by transferring 10 μL from a well in column 1 or 13 to the next well in column 2 or 14 respectively and successively with the help of a Minitrack robot. • Assay plates: Identical assay plates were then prepared by adding […] each of compound dilutions of the compound plates into 384-well “assay plates”. In the following the compounds were mixed with 50 μL of assays components (cells or enzyme) and tested for their inhibitory activity.
(§3) The cell line used is the luciferase expressing Ba/F3 murine hematopoietic progenitor cell line transformed with human Tel-TrkA, Tel-TrkB or Tel-TrkC cDNAs (Ba/F3 EN A/B/C). These cells maintained in RPMI/10% fetal bovine serum (RPMI/FCS) supplemented with penicillin 50 mg/mL, streptomycin 50 mg/mL and L-glutamine […]. Untransformed Ba/F3 cells were similarly maintained with the addition 5 ng/ml of murine recombinant IL3. 50 μl of a Ba/F3 or Ba/F3 EN A/B/C cell suspension were plated in Greiner 384 well microplates (white)) at a density of 2000 cells per well. 50 nl of serially diluted test compound (10-0.0001 mM in DMSO solution) is added to each well. The cells were incubated for 48 hours at 37° C., 5% CO2. 25 μl of Bright Glo® (Promega) luciferase substrate is added to each well. The emited luminiscence is quantified using the ACQUEST™ luminescence system (Molecular Devices). IC50 values were calculated by linear regression analysis of the percentage inhibition of each compound at 12 concentrations.

Tel-TrkB = biological target: T2, Tel-TrkB (Homo sapiens, UniProt Q16620); assay: Inhibition of proliferation of Ba/F3 cells expressing Tel-TrkB (BaF3/Tel-TrkB); assay type: cell-based; conditions: Ba/F3 Tel-TrkB cells; read-out: Ba/F3 Tel-TrkB IC 50
T2 construct: dimerization domain of Tel (ETV6) transcription factor (fusion partner, human ETV6 P41212); expressed in transfected cells; host or cells: luciferase expressing Ba/F3 murine hematopoietic progenitor cells; the other entry of the earlier key: ETV6 (P41212, Transcription factor ETV6)
Description: as §1, §2
(§4) Compounds of Formula (I) were tested for their antiproliferative effect on Ba/F3 cells expressing either Tel-TrkA, Tel-TrkB or Tel-TrkC and an additional panel of 34 selected diverse kinases activated by fusion to the dimerizing partners Bcr or Tel (Abl, A1K, BMX, EphA3, EphB2, FGFR2, FGFR3, FGFR4, FGR, FLT1, FLT3, FLT4, FMS, IGF1R, InsR, JAK1, JAK2, JAK3, KDR, Kit, Lck, Lyn, MER, MET, PDGFRb, RET, RON, Ros-1, Src, Aurora, TIE2, TYK2, Tie1, ZAP70). The antiproliferative effect of these compounds on the different cell lines and on the non transformed cells were tested at 12 different concentrations of 3-fold serially diluted compounds in 384 well plates as described above (in media lacking IL3). The IC50 values of the compounds the different cell lines were determined from dose response curves.
as §3, with “50 nl of serially diluted test compound (10-0.0001 mM in DMSO solution) is added to each well.” left out

Tel-TrkA = biological target: T3, Tel-TrkA (Homo sapiens, UniProt P04629); assay: Inhibition of proliferation of Ba/F3 cells expressing Tel-TrkA (BaF3/Tel-TrkA, luciferase/Bright Glo readout); assay type: cell-based; conditions: read-out: Ba/F3 Tel-TrkA IC 50
T3 construct: dimerization domain of Tel (ETV6) transcription factor (fusion partner, human ETV6 P41212); expressed in transfected cells; host or cells: luciferase expressing Ba/F3 murine hematopoietic progenitor cells; the other entry of the earlier key: ETV6 (P41212, Transcription factor ETV6)
Description: as §1, §2, §4
as §3, with “50 nl of serially diluted test compound (10-0.0001 mM in DMSO solution) is added to each well.” left out

T1 sequence (P35739 33-799): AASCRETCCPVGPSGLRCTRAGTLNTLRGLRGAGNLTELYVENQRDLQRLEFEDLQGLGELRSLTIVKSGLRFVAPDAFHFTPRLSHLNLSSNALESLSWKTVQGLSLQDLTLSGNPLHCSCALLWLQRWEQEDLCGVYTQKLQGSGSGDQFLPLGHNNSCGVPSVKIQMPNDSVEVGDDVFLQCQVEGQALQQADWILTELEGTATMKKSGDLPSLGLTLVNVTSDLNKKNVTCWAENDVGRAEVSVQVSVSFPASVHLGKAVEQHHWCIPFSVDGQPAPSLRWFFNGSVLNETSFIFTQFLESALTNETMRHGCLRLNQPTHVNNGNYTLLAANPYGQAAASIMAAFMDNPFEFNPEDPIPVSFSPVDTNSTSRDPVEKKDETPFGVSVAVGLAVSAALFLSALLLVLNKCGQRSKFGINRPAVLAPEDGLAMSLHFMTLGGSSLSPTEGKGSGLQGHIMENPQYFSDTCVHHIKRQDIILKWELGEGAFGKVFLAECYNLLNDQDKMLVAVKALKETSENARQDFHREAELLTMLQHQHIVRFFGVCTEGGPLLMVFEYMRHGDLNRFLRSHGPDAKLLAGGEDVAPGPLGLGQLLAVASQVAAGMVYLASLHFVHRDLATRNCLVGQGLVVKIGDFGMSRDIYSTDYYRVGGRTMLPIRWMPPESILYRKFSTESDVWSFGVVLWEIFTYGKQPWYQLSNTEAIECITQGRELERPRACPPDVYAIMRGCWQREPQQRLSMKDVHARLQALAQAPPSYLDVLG
T1 sequence (P01139 122-241 partner): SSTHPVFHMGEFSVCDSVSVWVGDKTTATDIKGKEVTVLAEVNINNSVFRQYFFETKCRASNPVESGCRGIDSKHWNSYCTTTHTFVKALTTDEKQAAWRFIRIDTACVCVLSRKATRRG
T3 sequence (P04629 510-796 limits assumed): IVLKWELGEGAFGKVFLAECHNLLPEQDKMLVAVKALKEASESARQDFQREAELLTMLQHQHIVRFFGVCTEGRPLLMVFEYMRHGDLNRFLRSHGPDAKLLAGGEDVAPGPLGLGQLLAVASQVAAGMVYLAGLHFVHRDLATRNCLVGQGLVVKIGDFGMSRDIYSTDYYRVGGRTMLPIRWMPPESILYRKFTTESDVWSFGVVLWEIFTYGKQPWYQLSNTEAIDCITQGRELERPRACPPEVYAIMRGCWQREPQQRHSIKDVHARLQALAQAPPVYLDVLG
T2 sequence (Q16620 538-822 limits assumed): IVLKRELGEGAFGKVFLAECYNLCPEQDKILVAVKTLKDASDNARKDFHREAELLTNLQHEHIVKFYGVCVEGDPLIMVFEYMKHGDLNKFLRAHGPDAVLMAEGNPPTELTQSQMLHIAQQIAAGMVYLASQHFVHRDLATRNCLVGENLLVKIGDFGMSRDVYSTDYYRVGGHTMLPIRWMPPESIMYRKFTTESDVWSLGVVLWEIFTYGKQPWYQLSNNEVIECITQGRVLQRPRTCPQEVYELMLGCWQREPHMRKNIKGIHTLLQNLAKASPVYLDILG

SMILES	BaF3 TRKA-NGF CTG IC 50 [1]	IC50 (parental BaF3 cells)	IC50 (Tel-TrkB)	IC50 (Tel-TrkA)
OCC1CCCN(c2cccc(-c3cnc4ccc(N5CCCC5c5cccc(F)c5)nn34)n2)C1 (centres unmarked) [Table 7-Compound 98]	13 nM	> 11000 nM	9 nM	6 nM
OCCNc1ncc(-c2cnc3ccc(N4CCCC4c4cccc(F)c4)nn23)cn1 (centres unmarked) [Table 7-Compound 171]	238 nM	> 11000 nM	129 nM	224 nM
Fc1cccc(C2COCCN2c2ccc3ncc(-c4cccc(N5CCOCC5)n4)n3n2)c1 (centres unmarked) [Table 2-Compound 10]	8.8 nM	> 10000 nM	6.2 nM	6.9 nM
O=C(CO)NC1CN(c2cccc(-c3cnc4ccc(N5CCC[C@@H]5c5cccc(F)c5)nn34)n2)C1 [Table 7-Compound 132]	4 nM	> 11000 nM	2 nM	2 nM
CNC(=O)OC1CCN(c2cccc(-c3cnc4ccc(N5CCC[C@@H]5c5cccc(F)c5)nn34)n2)CC1 [Table 7-Compound 185]	119 nM	> 11000 nM	70 nM	64 nM
Fc1cccc(C2COCCN2c2ccc3ncc(-c4cccc(NCCN5CCNCC5)n4)n3n2)c1 (centres unmarked) [Table 7-Compound 10]	77 nM	> 10000 nM	71 nM	61 nM
Fc1cccc(C2CCCN2c2ccc3ncc(-c4cccc(C5OCCO5)n4)n3n2)c1 (centres unmarked) [Table 7-Compound 18]	64 nM	> 10000 nM	4.8 nM	47 nM
OCCN1CCN(c2cccc(-c3cnc4ccc(N5CCCC5c5cccc(F)c5)nn34)n2)CC1 (centres unmarked) [Table 7-Compound 100]	3 nM	4380 nM	2 nM	2 nM
Fc1cccc(C2CCCN2c2ccc3ncc(-c4cccc(-c5cnco5)n4)n3n2)c1 (centres unmarked) [Table 7-Compound 20]	3.6 nM	> 10000 nM	1.6 nM	1.8 nM
Fc1cccc(C2COCCN2c2ccc3ncc(-c4ccc(CN5CCOCC5)cn4)n3n2)c1 (centres unmarked) [Table 2-Compound 20]	280 nM	> 10000 nM	390 nM	390 nM
[2H]C([2H])([2H])N(C1CCN(c2cccc(-c3cnc4ccc(N5CCC[C@@H]5c5cccc(F)c5)nn34)n2)CC1)C([2H])([2H])[2H] [Table 7-Compound 230]	29 nM	2690 nM	9 nM	6 nM
CC1CN(Cc2cccc(-c3cnc4ccc(N5CCCC5c5cccc(F)c5)nn34)n2)CC(C)O1 (centres unmarked) [Table 3-Compound 44]	1200 nM	> 10000 nM	1140 nM	1120 nM
O=C(C1CCN(c2cccc(-c3cnc4ccc(N5CCOCC5c5cccc(F)c5)nn34)n2)CC1)N1CCC(O)C1 (centres unmarked) [Table 7-Compound 26]	12 nM	> 10000 nM	7.5 nM	7.7 nM
CC(C)c1noc(C2CCN(c3cccc(-c4cnc5ccc(N6CCOCC6c6cccc(F)c6)nn45)n3)CC2)n1 (centres unmarked) [Table 7-Compound 21]	121 nM	> 10000 nM	67 nM	90 nM
